# Measured values reported in patent US11440880B2, “Thalidomide analogs and methods of use” (The USA, as represented by the Secretary, Department of …, priority 2015, dated 2022).
# Tests used:
# TNF-α protein = TNF-α protein level (ELISA) in LPS-challenged RAW 264.7 cells; assay type: cell-based, mouse; parameters: key: NS=not significant; a “+” sign=anti-inflammatory or increased cell numbers; a “−” sign=cell toxicity or pro-inflammatory; settings: LPS 30 or 60 ng/mL, 24 h
# Method in brief: (§1)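 RAW 264.7 cells pretreated 1 h with compound in DMSO vehicle, then challenged with LPS (30 or 60 ng/mL) for 24 h at 37° C. Conditioned-media nitrite by Griess (520 nm, sodium nitrite standard curve, 1.5 μM cutoff) in μM; mouse TNF-α by ELISA as pg/ml or % change from control.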
# [1] = test system: nitrite levels in the culture media; experiment: Nitrite level (Griess Reagent System) in LPS-challenged RAW 264.7 cells; assay type: cell-based, mouse; parameters: key: NS=not significant; a “+” sign=anti-inflammatory or increased cell numbers; a “−” sign=cell toxicity or pro-inflammatory; settings: LPS 30 or 60 ng/mL, 24 h
# Method in brief: as §1
# RAW 264.7 cells = experiment: Cell viability (CellTiter 96 AQueous One) of LPS-challenged RAW 264.7 cells; assay type: cell-based, mouse; parameters: key: NS=not significant; a “+” sign=anti-inflammatory or increased cell numbers; a “−” sign=cell toxicity or pro-inflammatory
# Method in brief: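 RAW 264.7 murine macrophages pretreated 1 h with compound or DMSO vehicle, then challenged with LPS (serotype 055:B5) at 30 or 60 ng/mL final for 24 h. After media replacement, viability measured by tetrazolium (MTS) conversion, absorbance at 490 nm, reported as O.D.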
# [2] = test system: human saphenous vein sections (microvessel outgrowth); experiment: Human saphenous vein assay of angiogenesis (ex vivo); assay type: cell-based; settings: for vessel outgrowth: 10 days of incubation; for inhibition of vessel outgrowth: in words
# Method: The saphenous vein was cleaned of subcutaneous tissue and embedded in Matrigel® matrix as previously described. After 10 days of incubation, the transverse sections of the veins were imaged. The outgrowth between the vehicle and no treatment (media) control was equivalent (106.65%±20.14, n=2 and 103.35%±4.06, n=2 respectively; FIGS. 13A and 13B).
# 59 cancer cell lines = experiment: One-dose anti-cancer screening in 59 cancer cell lines; assay type: cell-based; settings: 1×10^−5 M; with the exception of leukemic cell lines
# Source text: As well as being immunomodulatory and anti-angiogenic, lenalidomide and pomalidomide are directly cytotoxic to cancer cells. […] Compounds 29 and 86 were screened at a concentration of 1×10^−5 M (FIGS. 11 and 12, respectively). Calculated values from 0-100 indicate growth inhibition relative to a no-drug control, and values less than 0 indicate lethality, relative to the number of cells at time zero. A value of 100 means no growth inhibition. A value of 40 means 60% growth inhibition. A value of 0 means no net growth over the course of the experiment. A value of −40 means 40% lethality. A value of −100 means all cells are dead.
# [3] = Maximum tolerated dose in SCID mice; assay type: in vivo; settings: 3× per week; for deaths / drug-related toxicity / weight loss: 5 mg/kg and 10 mg/kg IV; for MTD: SCID, mouse, in vivo, IV, read-out: selected dose from the maximum tolerated dose study
# Source text: (§2) Compounds 29 and 86 were selected for in vivo efficacy studies of human prostate cancer. Mice positive for the severe combined immune deficieny (SCID) spontaneous mutation Prkdc^scid are deficient in functional T cells and B cells, have reduced levels of gamma globulins and lymphopenia (low white blood cell count). Due to their comprised immune system, SCID mice are amenable to xenogeneic grafts. Before starting the efficacy study, a maximum tolerated dose was established for each compound. Compound administration was by tail vein injection (IV) with a 27-gauge needle. A volume of 100 uL per 25 g of body weight was injected for each compound and dose. Compounds 29 and 86 were formulated in 12% DMSO and 88% TPGS (tocopherol polyethylene glycol succinate) in distilled sterile water. This formulation was well tolerated in vehicle control mice. The maximum tolerated dose was defined as the highest dose at which 100% of animals could tolerate treatment with mild or no toxicity for a minimum of one week of treatment. Initially, each compound was administered 3× per week to five mice per group, at 5 and 10 mg/kg. Each dose level was monitored for at least one week. […] Animals were weighed daily during the treatment courses. […] The selected dose for further experimentation was therefore 10 mg/kg.
# [4] = Precipitation of the IV formulation; assay type: physicochemical; settings: 20 mg/kg; 12% DMSO and 88% TPGS in distilled sterile water
# Source text: as §2
# [5] = test system: PC3 cells (xenografted tumors); experiment: PC3 xenograft efficacy in SCID mice; assay type: in vivo; settings: 10 mg/kg; for tumor burden: day 0 to day 24
# Source text: as §2
# When the tumors of SCID mice xenografted with PC3 cells were palpable, mice were dosed with 10 mg/kg of compound 29 or compound 86, or given the vehicle alone. From day 0 to day 24, the tumor sizes in vehicle-treated animals increased by 301.33% (FIG. 15, tumor size=401.33%±35.98%).
SMILES,TNF-α (TNF-α protein; 1 μM),TNF-α (TNF-α protein; 10 μM),TNF-α (TNF-α protein; 30 μM),TNF-α (TNF-α protein; 60 μM),TNF-α (TNF-α protein; 100 μM),Nitrite ([1]; 1 μM),Nitrite ([1]; 10 μM),Nitrite ([1]; 30 μM),Nitrite ([1]; 60 μM),Nitrite ([1]; 100 μM),Viability (RAW 264.7 cells; 1 μM),Viability (RAW 264.7 cells; 10 μM),Viability (RAW 264.7 cells; 30 μM),Viability (RAW 264.7 cells; 60 μM),Viability (RAW 264.7 cells; 100 μM),"inhibition of vessel outgrowth ([2]; 10 μM (FIGS. 13D, 13E))",activity on cell growth / cytotoxicity (59 cancer cell lines),deaths / drug-related toxicity [3],weight loss [3],MTD [3],other results
O=C1CCC(N2C(=O)c3cccc([N+](=O)[O-])c3C2=O)C(=O)N1 (centres unmarked) [Compound 5],NS,NS,NS,NS,NS,NS,NS,NS,NS,NS,NS,NS,NS,NS,NS,,,,,,
"O=C1NC(=S)CCC1N1C(=O)c2cccc([N+](=O)[O-])c2C1=O (centres unmarked) [Compound 7, 2-(2-Oxo-6-thioxo-3-piperidinyl)-4-nitro-1H-isoindole-1,3(2H)-dione]",NS,NS,NS,NS,+,NS,NS,+,+,+,NS,NS,NS,NS,+,,,,,,
Nc1cccc2c1CN(C1CCC(=O)NC1=O)C2=S (centres unmarked) [Compound 29],,NS,NS,,,,,,,,,−,−,,,no inhibition,very little activity,no animals died or needed to be euthanized due to drug-related toxicity,no significant weight loss,10 mg/kg,TNF-α (TNF-α protein; 3 μM): NS; Viability (RAW 264.7 cells; 3 μM): −; vessel outgrowth ([2]; 5 μM): 155.12%±23.69; vessel outgrowth ([2]; 10 μM): 168.06%±14.87; vessel outgrowth ([2]; 50 μM): 102.38%±16.78; vessel outgrowth ([2]; 100 μM): 62.53%±13.69; behaviour of the compound in the dosing solution [4]: precipitate in the solution; tumor burden [5]: No reduction in tumor burden
"Nc1cccc2c1CN(C13CC4CC(CC(C4)C1)C3)C2=O [Compound 77, 2,3-Dihydro-4-amino-2-(tricyclo[3.3.1.1^3,7]dec-1-yl)-1H-isoindol-1-one]",NS,NS,NS,,,NS,NS,NS,,,NS,NS,NS,,,,,,,,
CC(N1Cc2c(N)cccc2C1=O)C12CC3CC(CC(C3)C1)C2 (centres unmarked) [Compound 81],NS,NS,+,,,NS,NS,+,,,NS,NS,NS,,,,,,,,
"O=C1c2ccccc2CN1C12CC3CC(CC(O)(C3)C1)C2 [Compound 86, 2,3-Dihydro-2-(tricyclo[3.3.1.1^3,7]dec-1-hydroxy-3-yl)-1H-isoindol-1-one]",NS,+,+,,,NS,NS,NS,,,NS,NS,NS,,,vastly reduced outgrowth,very little activity,no animals died or needed to be euthanized due to drug-related toxicity,no significant weight loss,10 mg/kg,inhibition of vessel outgrowth ([2]; all concentrations): inhibit outgrowth at all concentrations; behaviour of the compound in the dosing solution [4]: precipitate in the solution; tumor burden [5]: No reduction in tumor burden; tumor size versus vehicle treated mice ([5]; p=0.07): trend to separate
